{"source": "patent US7300763B2", "about": "“Method of testing myelotoxicity with the use of flow cytometer” (Teijin Limited, priority 2000, dated 2007)", "key": {"rat bone marrow cells [1]": {"system": "rat bone marrow cells", "assay": "Observation of smears of bone marrow (May-Grünwald and Giemsa staining) in rats administered with 5-FU", "format": "in vivo", "parameters": "key to Number of Cells, Erythroblasts / Number of Cells, Immature Myelocytes: —: Undetected", "details": "50 mg/kg/day intravenously", "method": "(§1) (2) 5-Fluorouracil (hereinafter abbreviated to 5-FU) as a chemotherapeutic agent in a dose of 50 mg/kg/day ([…], 10 mL/kg) was intravenously administered to the rats, and a physiological saline solution was used as the control substance.\n(§2) The days of the experiment were indicated by the day of starting the administration as day 0. Groups for collecting the bone marrow on the day 0 and day 5 of the experiment were respectively set as groups administered with the control substance. Groups for collecting the bone marrow from day 1 to day 5 of the experiment were respectively set as groups administered with the 5-FU. The number of animals in each group was 3.\n(5) A part of bone marrow cells were suspended in an adequate amount of fetal bovine serum. An adequate amount of the resulting suspension was then dropped onto a slide glass, and a cover glass was obliquely applied to the droplet of the bovine fetal serum containing the bone marrow cells. The slide glass was directly moved to prepare smears (the wedge method). Each smear was subjected to May-Grünwald and Giemsa staining to carry out microscopic observation, and the ratio of the cells was calculated for each lineage and differentiation stage. After calculating the ratio, the resulting ratio was multiplied by the separately obtained number of bone marrow cells to determine the absolute number by observing the smear of each cell.\n(7) Observation of smears was carried out for 500 bone marrow cells per individual (one smear)."}, "rat bone marrow cells [2]": {"system": "rat bone marrow cells", "assay": "Myelotoxicity by flow cytometer analysis of cell surface antigen-expressing bone marrow cells after administration of 5-FU", "format": "in vivo", "details": "50 mg/kg/day intravenously; for Number of CD45 Peak 1-expressing cells / Number of CD45 Peak 2-expressing cells / Number of CD45R-expressing cells / Number of CD71-expressing cells / Number of CD90-expressing cells: n = 3", "method": "(1) Six-week-old male CD (SD) IGS rats purchased from Charles River Japan were used at the age of 8 weeks. During the housing period, the rats were fed with a feed for animals (Oriental Yeast Co., Ltd., CRF-1) and drinking water (well water containing 0.4% of a hypochlorite added) ad libitum. The animals were housed in metal cages (one animal per cage) and kept under conditions of a temperature of 23±1° C. and a humidity of 55±15%.\n(2) The bone marrow was collected from left and right femurs. The femurs were taken out under anaethesia with pentobarbital, and both ends of the femurs were cut. The bone marrow was then flushed out with 1 mL of fetal bovine serum using a syringe with a 25G injection needle. Bone pieces or the like were removed by using a Pasteur pipette, and cells were then collected by centrifugation (3,000 rpm for 5 minutes).\n(3) To 20 μL of the cells collected in (2), was added 5 mL of a phosphate-buffer-solution (PBS). Thereby, a cell suspension was obtained.\n(4) To 200 μL of the cell suspension in (3), was added 2 μg of a specific antibody to the cell surface antigen. Incubation was carried out at room temperature for 45 minutes. Mouse IgG2a anti-rat CD2, mouse IgG1 anti-rat CD8, mouse IgA anti-rat CD11b, mouse IgG1 anti-rat CD45, mouse IgG2b anti-rat CD45R, mouse IgG2a anti-rat CD71 and mouse IgG2a anti-rat CD90 were used as the antibody. Mouse IgG1, mouse IgG2a, mouse IgG2b and mouse IgA were used as the isotype control antibody. All the antibodies labeled with fluorescein (FITC) (Pharmingen.) were used as the antibody.\n(5) After incubation, 1 mL of Optilyse C (Beckman Coulter.) was added, and treatment was carried out for 10 minutes to hemolyze erythrocytes. After the hemolytic treatment, 1 mL of PBS was added, and incubation was carried out at room temperature for 10 minutes.\n(6) Procedures of adding 1 mL of PBS to a cell precipitation obtained by centrifugation (3,000 rpm for 5 minutes) after incubation and thereby washing the cells were repeated twice.\n(7) After washing, 2 mL of PBS was added to the cell precipitation to provide a cell suspension. Analysis was carried out with the use of a flow cytometer (EPICS XL-MCL, Beckman Coulter.) The analysis was conducted by following procedures described below. […] The fluorescence detector sensitivity of the flow cytometer was adjusted with the cells treated with the isotype antibody.\nas §1, §2\n(4) Bone marrow collection, antibody treatment and analysis with the flow cytometer were carried out according to Example 1. A flow count (Beckman Coulter.) was added to the cell suspension during the flow cytometer analysis, and a calibration region was set on the cytogram of EPIS XL-MCL to make measurement. The absolute number of the respective cell surface antigen-expressing cells was calculated. Mouse IgGI anti-rat CD45, mouse IgG2b anti-rat CD45R, mouse IgG2a anti-rat CD71 and mouse IgG2a anti-rat CD90 were used as the antibody, and mouse IgG1, mouse IgG2a and mouse IgG2b were used as the isotype control antibody.\n(6) The expression of cell surface antigens was measured for 15,000 bone marrow cells per individual with the use of the flow cytometer."}}}
{"smiles": "O=c1[nH]cc(F)c(=O)[nH]1", "note": "[5-FU, 5-Fluorouracil]", "values": [{"measurement": "Number of Cells, Erythroblasts", "setting": "rat bone marrow cells [1]; Day 1, Mean ± SD, n = 3", "result": "0.18 ± 0.07 ×10^6/μL"}, {"measurement": "Number of Cells, Immature Myelocytes", "setting": "rat bone marrow cells [1]; Day 1, Mean ± SD, n = 3", "result": "0.20 ± 0.10 ×10^6/μL"}, {"measurement": "Number of Cells, Lymphocytes", "setting": "rat bone marrow cells [1]; Day 1, Mean ± SD, n = 3", "result": "2.01 ± 0.86 ×10^6/μL"}, {"measurement": "Number of Cells, Mature Myelocytes", "setting": "rat bone marrow cells [1]; Day 1, Mean ± SD, n = 3", "result": "0.49 ± 0.22 ×10^6/μL"}, {"measurement": "Number of Cells, Erythroblasts", "setting": "rat bone marrow cells [1]; Day 2, Mean ± SD, n = 3", "result": "0.02 ± 0.03 ×10^6/μL"}, {"measurement": "Number of Cells, Immature Myelocytes", "setting": "rat bone marrow cells [1]; Day 2, Mean ± SD, n = 3", "result": "0.09 ± 0.04 ×10^6/μL"}, {"measurement": "Number of Cells, Lymphocytes", "setting": "rat bone marrow cells [1]; Day 2, Mean ± SD, n = 3", "result": "1.46 ± 0.21 ×10^6/μL"}, {"measurement": "Number of Cells, Mature Myelocytes", "setting": "rat bone marrow cells [1]; Day 2, Mean ± SD, n = 3", "result": "0.95 ± 0.32 ×10^6/μL"}, {"measurement": "Number of Cells, Erythroblasts", "setting": "rat bone marrow cells [1]; Day 3, Mean ± SD, n = 3", "result": "0.003 ± 0.001 ×10^6/μL"}, {"measurement": "Number of Cells, Immature Myelocytes", "setting": "rat bone marrow cells [1]; Day 3, Mean ± SD, n = 3", "result": "0.003 ± 0.001 ×10^6/μL"}, {"measurement": "Number of Cells, Lymphocytes", "setting": "rat bone marrow cells [1]; Day 3, Mean ± SD, n = 3", "result": "0.62 ± 0.13 ×10^6/μL"}, {"measurement": "Number of Cells, Mature Myelocytes", "setting": "rat bone marrow cells [1]; Day 3, Mean ± SD, n = 3", "result": "0.39 ± 0.03 ×10^6/μL"}, {"measurement": "Number of Cells, Erythroblasts", "setting": "rat bone marrow cells [1]; Day 4, Mean ± SD, n = 3", "result": "0.001 ± 0.001 ×10^6/μL"}, {"measurement": "Number of Cells, Lymphocytes", "setting": "rat bone marrow cells [1]; Day 4, Mean ± SD, n = 3", "result": "0.56 ± 0.20 ×10^6/μL"}, {"measurement": "Number of Cells, Mature Myelocytes", "setting": "rat bone marrow cells [1]; Day 4, Mean ± SD, n = 3", "result": "0.12 ± 0.02 ×10^6/μL"}, {"measurement": "Number of Cells, Immature Myelocytes", "setting": "rat bone marrow cells [1]; Day 4, n = 3", "result": "—"}, {"measurement": "Number of Cells, Lymphocytes", "setting": "rat bone marrow cells [1]; Day 5, Mean ± SD, n = 3", "result": "0.51 ± 0.08 ×10^6/μL"}, {"measurement": "Number of Cells, Mature Myelocytes", "setting": "rat bone marrow cells [1]; Day 5, Mean ± SD, n = 3", "result": "0.03 ± 0.01 ×10^6/μL"}, {"measurement": "Number of Cells, Erythroblasts", "setting": "rat bone marrow cells [1]; Day 5, n = 3", "result": "—"}, {"measurement": "Number of Cells, Immature Myelocytes", "setting": "rat bone marrow cells [1]; Day 5, n = 3", "result": "—"}, {"measurement": "Change of erythroblasts, in words", "setting": "rat bone marrow cells [1]; day 1 to day 5", "result": "decreased to such an extent of the scarcely observed cells on day 3 of the experiment and thereafter"}, {"measurement": "Change of immature myelocytes, in words", "setting": "rat bone marrow cells [1]; day 1 to day 5", "result": "decreased to such an extent of the scarcely observed cells on day 3 of the experiment and thereafter"}, {"measurement": "Change of lymphocytes, in words", "setting": "rat bone marrow cells [1]; day 1 to day 5", "result": "decreased on day 3 of the experiment and thereafter"}, {"measurement": "Change of number of mature myelocytes, in words", "setting": "rat bone marrow cells [1]; day 1 to day 5", "result": "temporarily increased from day 1 to day 3 of the experiment and then decreased on day 4 of the experiment and thereafter"}, {"measurement": "Number of CD45 Peak 1-expressing cells", "setting": "rat bone marrow cells [2]; Day 1, Mean ± SD", "result": "1.65 ± 0.68 ×10^6/μL"}, {"measurement": "Number of CD45 Peak 2-expressing cells", "setting": "rat bone marrow cells [2]; Day 1, Mean ± SD", "result": "0.76 ± 0.32 ×10^6/μL"}, {"measurement": "Number of CD45R-expressing cells", "setting": "rat bone marrow cells [2]; Day 1, Mean ± SD", "result": "1.54 ± 0.69 ×10^6/μL"}, {"measurement": "Number of CD71-expressing cells", "setting": "rat bone marrow cells [2]; Day 1, Mean ± SD", "result": "0.46 ± 0.17 ×10^6/μL"}, {"measurement": "Number of CD90-expressing cells", "setting": "rat bone marrow cells [2]; Day 1, Mean ± SD", "result": "1.76 ± 0.79 ×10^6/μL"}, {"measurement": "Number of CD45 Peak 1-expressing cells", "setting": "rat bone marrow cells [2]; Day 2, Mean ± SD", "result": "1.20 ± 0.32 ×10^6/μL"}, {"measurement": "Number of CD45 Peak 2-expressing cells", "setting": "rat bone marrow cells [2]; Day 2, Mean ± SD", "result": "0.82 ± 0.20 ×10^6/μL"}, {"measurement": "Number of CD45R-expressing cells", "setting": "rat bone marrow cells [2]; Day 2, Mean ± SD", "result": "1.46 ± 0.27 ×10^6/μL"}, {"measurement": "Number of CD71-expressing cells", "setting": "rat bone marrow cells [2]; Day 2, Mean ± SD", "result": "0.30 ± 0.15 ×10^6/μL"}, {"measurement": "Number of CD90-expressing cells", "setting": "rat bone marrow cells [2]; Day 2, Mean ± SD", "result": "1.58 ± 0.18 ×10^6/μL"}, {"measurement": "Number of CD45 Peak 1-expressing cells", "setting": "rat bone marrow cells [2]; Day 3, Mean ± SD", "result": "0.34 ± 0.13 ×10^6/μL"}, {"measurement": "Number of CD45 Peak 2-expressing cells", "setting": "rat bone marrow cells [2]; Day 3, Mean ± SD", "result": "0.75 ± 0.25 ×10^6/μL"}, {"measurement": "Number of CD45R-expressing cells", "setting": "rat bone marrow cells [2]; Day 3, Mean ± SD", "result": "0.59 ± 0.11 ×10^6/μL"}, {"measurement": "Number of CD71-expressing cells", "setting": "rat bone marrow cells [2]; Day 3, Mean ± SD", "result": "0.09 ± 0.05 ×10^6/μL"}, {"measurement": "Number of CD90-expressing cells", "setting": "rat bone marrow cells [2]; Day 3, Mean ± SD", "result": "0.49 ± 0.10 ×10^6/μL"}, {"measurement": "Number of CD45 Peak 1-expressing cells", "setting": "rat bone marrow cells [2]; Day 4, Mean ± SD", "result": "0.05 ± 0.02 ×10^6/μL"}, {"measurement": "Number of CD45 Peak 2-expressing cells", "setting": "rat bone marrow cells [2]; Day 4, Mean ± SD", "result": "0.64 ± 0.24 ×10^6/μL"}, {"measurement": "Number of CD45R-expressing cells", "setting": "rat bone marrow cells [2]; Day 4, Mean ± SD", "result": "0.41 ± 0.12 ×10^6/μL"}, {"measurement": "Number of CD71-expressing cells", "setting": "rat bone marrow cells [2]; Day 4, Mean ± SD", "result": "0.02 ± 0.02 ×10^6/μL"}, {"measurement": "Number of CD90-expressing cells", "setting": "rat bone marrow cells [2]; Day 4, Mean ± SD", "result": "0.16 ± 0.06 ×10^6/μL"}, {"measurement": "Number of CD45 Peak 1-expressing cells", "setting": "rat bone marrow cells [2]; Day 5, Mean ± SD", "result": "0.03 ± 0.02 ×10^6/μL"}, {"measurement": "Number of CD45 Peak 2-expressing cells", "setting": "rat bone marrow cells [2]; Day 5, Mean ± SD", "result": "0.51 ± 0.06 ×10^6/μL"}, {"measurement": "Number of CD45R-expressing cells", "setting": "rat bone marrow cells [2]; Day 5, Mean ± SD", "result": "0.32 ± 0.08 ×10^6/μL"}, {"measurement": "Number of CD71-expressing cells", "setting": "rat bone marrow cells [2]; Day 5, Mean ± SD", "result": "0.02 ± 0.01 ×10^6/μL"}, {"measurement": "Number of CD90-expressing cells", "setting": "rat bone marrow cells [2]; Day 5, Mean ± SD", "result": "0.09 ± 0.02 ×10^6/μL"}, {"measurement": "Change of number of CD45 (Peak 1)-expressing cells, in words", "setting": "rat bone marrow cells [2]; day 1 to day 5", "result": "began decreasing in a period between day 1 and day 2 of the experiment and was decreased to such an extent of the scarcely observed expressing cells on day 4 of the experiment"}, {"measurement": "Change of number of CD45 (Peak 2)-expressing cells, in words", "setting": "rat bone marrow cells [2]; day 1 to day 5", "result": "A decrease was not observed"}, {"measurement": "Change of number of CD45R-expressing cells, in words", "setting": "rat bone marrow cells [2]; day 1 to day 5", "result": "the decrease continued on day 3 of the experiment and thereafter"}, {"measurement": "Change of number of CD71-expressing cells, in words", "setting": "rat bone marrow cells [2]; day 1 to day 5", "result": "decreased to such an extent of the scarcely observed expressing cells on day 3 of the experiment and thereafter"}, {"measurement": "Change of number of CD90-expressing cells, in words", "setting": "rat bone marrow cells [2]; day 1 to day 5", "result": "markedly decreased on day 3 of the experiment and thereafter"}]}
